In patent US4705799A, “Aminomethyl oxooxazolidinyl benzenes useful as antibacterial agents” (E. I. Du Pont de Nemours and Company, priority 1985, dated 1987):
In brackets after ≈: the same amount, converted by molar mass.

Experiments:
Escherichia coli [1] = test: In vitro broth dilution minimal inhibitory concentration (standard microdilution method); format: cell-based; conditions: Escherichia coli; Mueller-Hinton broth; 24-hour; read-out: Microdilution Broth MIC
Staphylococcus aureus [2] = test: In vivo efficacy of compounds administered subcutaneously in mouse intraperitoneal infections; conditions: sc, 168 h; mouse i.p. Staphylococcus aureus infection; subcutaneous; dosed at infection and 4 h post-infection; 7 days; read-out: ED50 (50 percent effective dose)
Experimental: (§1) Determinations of in vivo efficacy are performed by inoculating mice intraperitoneally with cultures of the infecting organism diluted to produce 90-100% mortality in control animals within twenty-four hours. The diluents used were trypticase soy broth for E. coli and 5% aqueous hog gastric mucin for Staphylococcus aureus infections. The compounds are dissolved or suspended in 0.25% aqueous Methocel® (Methocel®: Hydroxypropyl Methylcellulose E15 Premium, Dow Chemical Company) for oral administration or sterile distilled water containing 5% dimethylsulfoxide (Fisher Scientific Company, Fairlawn, N.J.) for subcutaneous administration. The mice are dosed at the time of infection and again at four hours post-infection. Mortality is recorded daily until test termination seven days post infection and the 50 percent effective dose, ED50, is calculated by the Reed-Muench method (Reed, L. G. and Muench, H., "A simple method of estimating fifty percent end points," American Journal of Hygiene, 27, 493-497 (1938).

Escherichia coli [3] = test: as above; conditions: sc, 168 h; mouse i.p. Escherichia coli infection; subcutaneous; dosed at infection and 4 h post-infection; 7 days; read-out: ED50 (50 percent effective dose)
Experimental: as §1

Staphylococcus aureus [4] = test: In vivo efficacy of orally administered compounds in mouse intraperitoneal infections; conditions: Staphylococcus aureus, po, 168 h, mouse i.p. Staphylococcus aureus infection; oral; dosed at infection and 4 h post-infection; 7 days; read-out: ED50 (50 percent effective dose)
Experimental: as §1

[5] = system: Staphylococcus epidermidis; test: In vitro broth dilution minimal inhibitory concentration (standard microdilution method); format: cell-based; conditions: 24 h, Mueller-Hinton broth, 24-hour, read-out: Microdilution Broth MIC
Escherichia coli [6] = test: In vivo efficacy of orally administered compounds in mouse intraperitoneal infections; conditions: 168 h; mouse i.p. Escherichia coli infection; oral; dosed at infection and 4 h post-infection; 7 days; read-out: ED50 (50 percent effective dose)
Experimental: as §1

Structure (SMILES) | MIC (Escherichia coli [1]) [mg/L] | ED50 (Staphylococcus aureus [2]) [mg/kg] | ED50 (Escherichia coli [3]) [mg/kg] | ED50 (Staphylococcus aureus [4]) [mg/kg] | MIC [5] [mg/L] | ED50 (Escherichia coli [6]) [mg/kg]
COC(=O)NCC1CN(c2ccc(C(C)=O)cc2)C(=O)O1 (stereo not shown) [Example 179] | 128 (≈ 438 µM) | 1.7 | 83.1 | 2 | 4 (≈ 13.7 µM) | 
CS(=O)(=O)NCC1CN(c2ccc(S(C)(=O)=O)cc2)C(=O)O1 (single isomer, unassigned) [Example 25, (l)-N-[3-[4-(Methylsulfonyl)phenyl]-2-oxooxazolidin-5-ylmethyl]methanesulfonamide] | > 100 | 83.6 | > 100 | > 360 | 100 (≈ 287 µM) | 
C=C(C)c1ccc(N2CC(CNC(C)=O)OC2=O)cc1 (stereo not shown) [Example 97] | > 200 | 9.5 | > 120 | 4.9 | 3.1 (≈ 11.3 µM) | 
CCCCCCN(CC1CN(c2ccc(S(C)(=O)=O)cc2)C(=O)O1)C(C)=O (racemic) [Example 122, (dl)-N-Hexyl-N-[3-[4-(methylsulfonyl)phenyl]-2-oxooxazolidin-5-ylmethyl]acetamide] | > 200 | 16.3 | > 120 | 48.4 | > 200 | > 120
CC(=O)NCC1CN(c2ccc(SC(C)=O)cc2)C(=O)O1 (single isomer, unassigned) [Example 152, (l)-N-[3-[4-(Acetylthio)phenyl]-2-oxooxazolidin-5-ylmethyl]acetamide] | > 200 | < 2.5 |  | 4.4 | > 200 | 24.8
CC(=O)NCC1CN(c2ccc(C[S+](C)[O-])cc2)C(=O)O1 (single isomer, unassigned) [Example 164, (l)-N-[3-[4-(Methylsulfinylmethyl)phenyl]-2-oxo-5-oxazolidinylmethyl]acetamide] | > 128 | 9.4 | > 120 | 14 | 16 (≈ 51.6 µM) | 
CCC(=O)NCC1CN(c2ccc(C(C)=O)cc2)C(=O)O1 (single isomer, unassigned) [Example 171, (l)-N-[3-(4-Acetylphenyl)-2-oxo-5-oxazolidinylmethyl]propanamide] | > 128 | 1.6 | 21.6 | 3.3 | 4 (≈ 13.8 µM) | 
CS(=O)(=O)c1ccc(N2CC(CNC(=O)C(Cl)Cl)OC2=O)cc1 (single isomer, unassigned) [Example 22, (l)-2,2-Dichloro-N-[3-[4-(methylsulfonyl)phenyl]-2-oxooxazolidin-5-ylmethyl]acetamide] | 9.4 (≈ 24.7 µM) |  | 11.8 | 14.2 | 2.4 (≈ 6.3 µM) | 71.1
CC(=O)c1ccc(N2CC(CNC(=O)CCl)OC2=O)cc1 (stereo not shown) [Example 174] | 32 (≈ 103 µM) | 12.2 | > 120 | 8.1 | 1 (≈ 3.22 µM) | 
CC(=O)NCC1CN(c2ccc(C(=O)C[S+](C)[O-])cc2)C(=O)O1 (single isomer, unassigned) [Example 165, (l)-N-[3-[4-(Methylsulfinyl)acetylphenyl]-2-oxo-5-oxazolidinylmethyl]acetamide dihydrate] | > 200 | 8.4 | > 120 | 16.4 | 12.5 | 
CC(=O)NCC1CN(c2ccc(I)cc2)C(=O)O1 (single isomer, unassigned) [Example 145, (l)-N-[3-(4-Iodophenyl)-2-oxo-5-oxazolidinylmethyl]acetamide] | > 200 | 12.2 | > 120 | 50 | 12.5 (≈ 34.7 µM) | 
CC(=O)NCC1CN(c2ccccc2[N+](=O)[O-])C(=O)O1 (single isomer, unassigned) [Example 148, (l)-N-[3-(2-Nitrophenyl)-2-oxooxazolidin-5-ylmethyl]acetamide] | > 200 | 21.5 |  | 21 | 200 (≈ 716 µM) | > 120
COC(=O)NCC1CN(c2ccc(S)cc2)C(=O)O1 (single isomer, unassigned) [Example 156, (l)-[3-(4-Mercaptophenyl)-2-oxooxazolidin-5-ylmethyl]carbamic acid, methyl ester] | > 200 | < 4.4 |  | 4.5 | > 200 | > 120
CS(=O)(=O)c1ccc(N2CC(CN)OC2=O)cc1 (single isomer, unassigned) [Example 11, (l)-5-Aminomethyl-3-[4-(methylsulfonyl)phenyl]-2-oxazolidinone] | > 100 | 16.4 |  | 29.9 | > 100 | 47.4
COCC(=O)NCC1CN(c2ccc(S(C)(=O)=O)cc2)C(=O)O1 (stereo not shown) [Example 57] | 100 (≈ 292 µM) |  | 12.9 | 10.8 | 12.5 (≈ 36.5 µM) | 39
